Legend:
[1] = target: T1, EphA4 (Mus musculus, UniProt Q03137); assay: ELISA, EphA4 AP binding to immobilized biotinylated KYL peptide; set-up: made in house; conditioned culture medium used
Procedure: Chemical Library Screening for EphA4 Inhibitors—A 96-well format in vitro assay was used for compound screening. Polystyrene high binding capacity plates (Corning, Corning, N.Y.) were incubated overnight at 4° C. with 2 μg/mL streptavidin (Pierce Biotecnology, Rockford, Ill.) diluted in borate buffer 0.1 M pH 8.7 and then coated by overnight incubation with 0.1 μM of biotinylated KYL peptide (Murai et al. (2003) Mol Cell Neurosci 24(4), 1000-1011) in binding buffer (Tris-buffered saline (TBS; 150 mM NaCl, 50 mM Tris-HCl, pH 7.5) with 1 mM CaCl2 and 0.01% Tween 20). Compounds were added to the wells at 10 μg/mL in 100% dimethylsulfoxide (DMSO) together with EphA4 alkaline phosphatase fusion protein (EphA4 AP) produced from transfected cells. Cell culture medium containing the secreted EphA4 AP was diluted 1:16 in binding buffer. The mixture was incubated for 3 hours at room temperature before washing with binding buffer and adding p-nitrophenylphosphate (pNPP) (Pierce Biotecnology, Rockford, Ill.) as the substrate. After 1 hour the reaction was stopped by adding 2N NaOH and the absorbance at 405 nm was measured using an ELISA plate reader Alkaline phosphatase activity from wells where alkaline phosphatase (AP) was added instead of EphA4 AP was subtracted as background. The inhibitory activity of the compounds was calculated by dividing the absorbance observed in the presence of each compound and the absorbance from wells where no compound was added. Compounds with inhibitory activity higher than 50% were considered hits.

[2] = target: T1, EphA4; assay: ELISA, EphA4 AP binding to immobilized ephrin Fc fusion proteins; set-up: made in house; conditioned culture medium used
Procedure: FIGS. 3A and 3B. A. Ephrin-A5 AP binding to immobilized EphA receptor Fc fusion proteins and ephrin-B2 AP binding to immobilized EphB receptor Fc fusion proteins were measured in the presence of the indicated concentrations of compounds 1 and 2. […] Error bars indicate standard error from 3 measurements. B. IC50 values for inhibition of EphA4 AP and EphA2 AP binding to the indicated immobilized ephrins by compounds 1 and 2.
ELISA Assays and K, Determination—Protein A-coated wells (Pierce Biotecnology, Rockford, Ill.) were used to immobilize ephrin Fc fusion proteins (R&D Systems, Minneapolis, Minn.). Compounds at different concentrations were incubated with EphA4 AP (Cheng and Flanagan, (1994) Cell 79(1), 157-168) or EphA2 AP (Koolpe et al. (2002) J Biol Chem 277(49), 46974-46979) for 3 hours. Alternatively, Eph receptor Fc fusion proteins were immobilized on protein A-coated wells and ephrin-A5 AP (Menzel et al. (2001) Developmental Biology 230(1), 74-88) or ephrin-B2 AP (GeneHunter, Nashville, Tenn.) were added with the compounds. The amount of bound AP-fusion protein was quantified using pNPP as the substrate. Alkaline phosphatase activity from wells with Fc only was subtracted as background. […]

[3] = system: EGF receptor; assay: EGF receptor phosphorylation in COS7 cells; format: cell-based; details: COS7 cells stimulated with EGF
[4] = system: retinal neurons; assay: Growth cone collapse assay, nasal retina explants; format: cell-based, chicken; details: for ephrin-A5 Fc induced growth cone collapse: 1 μg/mL ephrin-A5 Fc, 400 μM compound, 5 μM KYL peptide; for shape of unstimulated growth cones: concentrations as high as 400 μM
Procedure: FIGS. 8A-8F. Compounds 1 and 2 block EphA4-dependent growth cone collapse in retinal neurons. A. Explants from embryonic day 6 chicken embryonic were preincubated with 5 μM KYL peptide for 15 min, stimulated for 30 min with 1 μg/mL ephrin-A5 Fc or Fc as a control in the continued presence of the peptide, and stained with rhodamine-phalloidin to label filamentous actin. B. Histogram showing the mean percentages of collapsed growth cones. Growth cones were scored as collapsed when no lamellipodia or filopodia were visible at the tip of the neurite. Approximately 30-200 growth cones per condition were scored in each experiment and error bars indicate standard error from 3 independent experiments. C-F. Experiments were performed as in (A), except that retinal explants were treated with 400 μM compound 1 (C,D) or compound 2 (E,F). Approximately 80-250 growth cones per condition were scored in each experiment, and error bars indicate standard error from 3 experiments. Collapsed growth cones under different conditions were compared to those in the Fc control condition by one-way ANOVA and Dunnett's post test. *P<0.05 and **P<0.01. Scale bars in (A), (C), (E)=[…].
Growth Cone Collapse Assay—Nasal retina explants from embryonic day 6 chicken embryos were cultured on coverslips coated with 200 μg/mL poly-L-lysine and 20 μg/mL lamining for 12 to 24 hours in DMEM/F-12 culture medium containing 10% FBS and 0.4% methylcellulose. Three hours before adding the Fc fusion proteins, the medium was changed to DMEM/F-12 without methylcellulose. The explants were incubated for 15 min with the KYL peptide or the chemical compounds and then stimulated for 30 min with 1 μg/mL preclustered ephrin-A5 Fc or Fc as a control. The cultures were fixed for 30 min in 4% paraformaldehyde/4% sucrose in phosphate buffered saline (PBS), permeabilized in 0.1% Triton X-100 in PBS and stained with rhodamine-conjugated phalloidin (Invitrogen, Carlsbad, Calif.). Cells were photographed under a fluorescence microscope and growth cones where scored in a blinded manner as collapsed when no lamellipodia or filopodia were present at the tip of the neurite.

[5] = system: EphB2; assay: EphB2 tyrosine phosphorylation in COS7 cells; format: cell-based; details: COS7 cells stimulated with ephrin-B2 Fc

T1 sequence (Q03137 20-547 limits assumed): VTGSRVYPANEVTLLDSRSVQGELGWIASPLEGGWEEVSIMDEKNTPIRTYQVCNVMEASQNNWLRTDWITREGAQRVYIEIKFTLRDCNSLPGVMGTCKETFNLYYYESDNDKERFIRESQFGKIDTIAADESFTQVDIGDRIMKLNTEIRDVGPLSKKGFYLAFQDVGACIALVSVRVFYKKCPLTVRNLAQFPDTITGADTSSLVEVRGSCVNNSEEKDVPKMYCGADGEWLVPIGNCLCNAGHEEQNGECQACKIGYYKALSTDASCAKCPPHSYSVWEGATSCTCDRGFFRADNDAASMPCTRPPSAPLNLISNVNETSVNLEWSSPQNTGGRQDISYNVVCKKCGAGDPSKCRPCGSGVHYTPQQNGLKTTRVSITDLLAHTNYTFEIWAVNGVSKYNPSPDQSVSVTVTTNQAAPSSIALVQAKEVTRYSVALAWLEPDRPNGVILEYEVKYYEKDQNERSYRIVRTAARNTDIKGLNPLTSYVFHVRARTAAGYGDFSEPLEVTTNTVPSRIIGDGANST

| Structure (SMILES) | inhibition of EphA4-KYL peptide binding (in words) [1] | inhibition of binding of different ephrin ligands to EphA4 [2] | phosphorylation of the EGF receptor [3] | ephrin-A5 Fc induced growth cone collapse [4] | ephrin-A5 Fc induced growth cone collapse ([4]; listed as Compound 1) | shape of unstimulated growth cones [4] | phosphorylation of endogenous EphB2 [5] | IC50 ([1]; read-out: IC50 for inhibition of EphA4 AP binding to KYL peptide) |
| --- | --- | --- | --- | --- | --- | --- | --- | --- |
| Cc1ccc(C)n1-c1ccc(C(=O)O)c(O)c1 [compound 1, 4-(2,5-dimethyl-pyrrol-1-yl)-2-hydroxy-benzoic acid] | inhibit | inhibited binding of most ephrin ligands to EphA4, except for ephrin-A4 and ephrin-B2 | did not inhibit | block | blocked | neither the KYL peptide nor the two compounds at concentrations as high as 400 μM affected the shape | did not inhibit | – |
| Cc1ccc(C)n1-c1ccc(O)c(C(=O)O)c1 [compound 2, 5-(2,5 dimethyl-pyrrol-1-yl)-2-hydroxy-benzoic acid] | inhibit | inhibited binding of most ephrin ligands to EphA4, except for ephrin-A4 and ephrin-B2 | did not inhibit | block | – | neither the KYL peptide nor the two compounds at concentrations as high as 400 μM affected the shape | did not inhibit | 3 µM |

— patent US20100256214A1, “EPH RECEPTOR LIGANDS AND METHODS OF USE” (Burnham Institute for Medical Research, priority 2009, published 2010)
